Assay results: patent US20240376096A1, “SMALL MOLECULE CYCLIN DEPENDENT KINASE 4/6 (CDK4/6) AND IKZF2 (HELIOS) DEGRADERS AND METHODS OF USE THEREOF” (DANA-FARBER CANCER INSTITUTE, INC., priority 2021, published 2024)

Key:
Format in all cases: cell-based
[1] = target: T1, Helios (Homo sapiens, UniProt Q96SW2+Q9UKS7); assay: Immunoblot of Helios levels in Jurkat cells; conditions: 1 μM; for degradation of Helios (immunoblot): 4 h; for protein abundance of Helios (immunoblot): 16 h
T1 construct: immunoblots from Jurkat cells treated with the indicated compounds; endogenous in cells; host or cells: Jurkat cells
T1 sequence (Q9UKS7 whole entry): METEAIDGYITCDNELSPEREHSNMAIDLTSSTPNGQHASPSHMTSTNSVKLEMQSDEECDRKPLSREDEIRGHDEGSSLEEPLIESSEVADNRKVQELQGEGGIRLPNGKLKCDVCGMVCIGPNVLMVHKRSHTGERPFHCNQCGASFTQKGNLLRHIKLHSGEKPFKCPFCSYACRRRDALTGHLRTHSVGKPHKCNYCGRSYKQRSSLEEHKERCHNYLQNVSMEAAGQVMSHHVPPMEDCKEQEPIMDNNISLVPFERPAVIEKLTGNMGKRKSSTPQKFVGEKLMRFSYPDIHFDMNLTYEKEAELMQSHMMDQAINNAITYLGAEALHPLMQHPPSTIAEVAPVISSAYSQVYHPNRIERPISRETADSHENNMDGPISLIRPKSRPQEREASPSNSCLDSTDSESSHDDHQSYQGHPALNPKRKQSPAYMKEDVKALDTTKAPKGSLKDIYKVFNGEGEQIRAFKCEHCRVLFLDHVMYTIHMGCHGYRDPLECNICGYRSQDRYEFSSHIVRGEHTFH
T1 sequence (Q96SW2 whole entry): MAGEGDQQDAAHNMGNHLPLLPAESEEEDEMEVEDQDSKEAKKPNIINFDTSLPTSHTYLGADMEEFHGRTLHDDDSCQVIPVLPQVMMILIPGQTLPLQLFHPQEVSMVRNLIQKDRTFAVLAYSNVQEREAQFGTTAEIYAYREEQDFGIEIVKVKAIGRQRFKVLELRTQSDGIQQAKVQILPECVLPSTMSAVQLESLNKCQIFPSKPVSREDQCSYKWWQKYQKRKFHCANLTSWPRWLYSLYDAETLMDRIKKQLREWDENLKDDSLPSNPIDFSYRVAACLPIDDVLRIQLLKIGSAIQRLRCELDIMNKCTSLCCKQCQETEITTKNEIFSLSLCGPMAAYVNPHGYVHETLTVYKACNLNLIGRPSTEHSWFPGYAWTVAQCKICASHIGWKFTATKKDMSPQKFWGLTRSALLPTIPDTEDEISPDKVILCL
T1 sequence (Q16531 whole entry partner): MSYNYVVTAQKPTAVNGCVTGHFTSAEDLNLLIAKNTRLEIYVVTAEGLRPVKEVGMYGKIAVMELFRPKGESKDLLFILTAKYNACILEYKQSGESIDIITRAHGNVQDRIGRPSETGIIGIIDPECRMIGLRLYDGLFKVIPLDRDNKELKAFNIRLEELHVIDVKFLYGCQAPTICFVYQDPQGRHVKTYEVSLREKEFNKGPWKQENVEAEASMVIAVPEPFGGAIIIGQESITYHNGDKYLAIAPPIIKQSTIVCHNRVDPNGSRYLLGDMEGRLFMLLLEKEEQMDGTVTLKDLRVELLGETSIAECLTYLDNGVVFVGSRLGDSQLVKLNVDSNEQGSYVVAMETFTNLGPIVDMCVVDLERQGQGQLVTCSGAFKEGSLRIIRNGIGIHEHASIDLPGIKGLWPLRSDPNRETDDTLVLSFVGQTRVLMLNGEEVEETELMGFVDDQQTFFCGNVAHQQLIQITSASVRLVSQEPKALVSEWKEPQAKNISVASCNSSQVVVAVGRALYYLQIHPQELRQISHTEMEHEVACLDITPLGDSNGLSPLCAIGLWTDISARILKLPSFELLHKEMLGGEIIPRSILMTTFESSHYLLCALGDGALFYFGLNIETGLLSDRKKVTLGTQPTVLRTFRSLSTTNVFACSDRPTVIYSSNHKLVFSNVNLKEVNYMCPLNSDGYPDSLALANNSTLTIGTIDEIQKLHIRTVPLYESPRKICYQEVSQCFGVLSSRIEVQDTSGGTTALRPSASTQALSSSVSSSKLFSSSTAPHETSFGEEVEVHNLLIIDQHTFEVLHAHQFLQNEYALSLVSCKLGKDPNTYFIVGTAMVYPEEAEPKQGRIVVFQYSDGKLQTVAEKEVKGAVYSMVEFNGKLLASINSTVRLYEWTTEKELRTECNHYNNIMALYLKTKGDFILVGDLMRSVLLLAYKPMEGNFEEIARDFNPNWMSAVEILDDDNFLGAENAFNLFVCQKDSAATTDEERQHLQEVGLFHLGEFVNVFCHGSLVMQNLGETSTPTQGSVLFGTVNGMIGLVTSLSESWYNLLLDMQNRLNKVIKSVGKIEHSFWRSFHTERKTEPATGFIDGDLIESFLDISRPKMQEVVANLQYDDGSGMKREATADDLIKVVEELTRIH
Experimental: (§1) FIG. 1A is a set of immunoblots of Jurkat cells treated with 1 μM of the indicated (DKY709 and Ia-1 to Ia-8) compounds for 4 hours, showing the levels of Ikaros, Helios, CDK4, CDK6, and tubulin for each compound.
(§2) FIG. 1B is a set of immunoblots of Jurkat cells treated with the Helios degrader DKY709, the triple degrader Ia-8, and the paired negative control compound 17 for 4 hours, showing the levels of Ikaros, Helios, CDK4, CDK6, and tubulin for each compound at 0.1 μM and 1 μM.
(§3) FIG. 2 is a set of immunoblots of Jurkat cells treated with the indicated compounds (palbociclib, DKY709, Ia-8, and 17) at 0.1 μM and 1 μM for 16 hours.
(§4) The structure of DKY709 (3-(5-(1-benzylpiperidin-4-yl)-1-oxoisoindolin-2-yl)piperidine-2,6-dione) is shown here: […]

[2] = target: T2, CDK4 (Homo sapiens, UniProt P11802); assay: Immunoblot of CDK4 levels in Jurkat cells; conditions: 1 μM; for degradation of CDK4 (immunoblot): 4 h; for protein abundance of CDK4 (immunoblot): 16 h
T2 construct: immunoblots from Jurkat cells treated with the indicated compounds; endogenous in cells; host or cells: Jurkat cells
T2 sequence (P11802 whole entry): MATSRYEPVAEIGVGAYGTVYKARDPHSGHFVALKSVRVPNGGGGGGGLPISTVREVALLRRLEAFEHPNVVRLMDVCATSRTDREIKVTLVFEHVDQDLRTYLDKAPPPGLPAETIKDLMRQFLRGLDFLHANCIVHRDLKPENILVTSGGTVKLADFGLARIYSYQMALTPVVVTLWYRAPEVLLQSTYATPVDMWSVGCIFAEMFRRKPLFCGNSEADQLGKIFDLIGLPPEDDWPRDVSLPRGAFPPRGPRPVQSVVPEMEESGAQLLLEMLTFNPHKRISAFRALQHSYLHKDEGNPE
Experimental: as §1, §2, §3, §4

[3] = target: T3, CDK6 (Homo sapiens, UniProt Q00534); assay: Immunoblot of CDK6 levels in Jurkat cells; conditions: 1 μM; for degradation of CDK6 (immunoblot): 4 h; for protein abundance of CDK6 (immunoblot): 16 h
T3 construct: immunoblots from Jurkat cells treated with the indicated compounds; endogenous in cells; host or cells: Jurkat cells
T3 sequence (Q00534 whole entry): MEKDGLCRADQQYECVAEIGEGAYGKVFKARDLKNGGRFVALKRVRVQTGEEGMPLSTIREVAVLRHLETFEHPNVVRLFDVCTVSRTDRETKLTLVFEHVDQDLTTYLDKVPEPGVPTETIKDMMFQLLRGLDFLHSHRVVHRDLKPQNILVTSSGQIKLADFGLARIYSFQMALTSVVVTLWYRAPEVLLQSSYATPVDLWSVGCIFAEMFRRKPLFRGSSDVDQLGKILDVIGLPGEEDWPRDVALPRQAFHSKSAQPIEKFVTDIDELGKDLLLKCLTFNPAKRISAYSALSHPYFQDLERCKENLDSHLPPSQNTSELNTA
Experimental: as §1, §2, §3, §4

[4] = system: phosphorylated Rb; assay: Immunoblot of phosphorylated Rb in Jurkat cells; conditions: 1 μM, 16 h
Experimental: as §3

[5] = system: Jurkat cells; assay: Propidium iodide staining for DNA content (G1 arrest); conditions: 100 nM, 24 h
Experimental: FIG. 3A is a set of histograms and the quantification of the DNA content using propidium iodide (PI) staining after treatment of Jurkat cells with the indicated compounds (palbociclib, DKY709, 18, Ia-6, 16, Ia-8, and 17) at 100 nM for 24 h.
The structure of 18 (N-(4-(4-(6-((6-acetyl-8-cyclopentyl-5-methyl-7-oxo-7,8-dihydropyrido[2,3-d]pyrimidin-2-yl)amino)pyridin-3-yl)piperazin-1-yl)butyl)-2-((2-(1-methyl-2,6-dioxopiperidin-3-yl)-1,3-dioxoisoindolin-4-yl)amino)acetamide) is shown here: […]

[6] = system: Jurkat cells; assay: IL-2 levels by ELISA after TCR stimulation; conditions: Jurkat cells pre-treated with 1 μM for 24 h, then TCR-stimulated for 18 h
Experimental: FIG. 4 is a graph of [IL2] for the indicated compounds in Jurkat cells upon TCR-stimulation with a-CD3/CD28.
Quantification of IL-2 levels by ELISA from Jurkat cells pre-treated with 1 μM of the indicated compounds for 24 h and then TCR-stimulated for 18 h. Results are shown in FIG. 4 as mean±SD (untreated, n=3; other conditions, n=4) (*p<0.05). […] The structure of 19 (N-(4-(4-(6-((6-acetyl-8-cyclopentyl-5-methyl-7-oxo-7,8-dihydropyrido[2,3-d]pyrimidin-2-yl)amino)pyridin-3-yl)piperazin-1-yl)butyl)-2-((2-(2,6-dioxopiperidin-3-yl)-1,3-dioxoisoindolin-4-yl)oxy)acetamide) is shown here: […]

[7] = system: Jurkat cells; assay: Cell proliferation quantified by CellTiter-Glo; conditions: Homo sapiens, 72 h, dose curve, 3 d, read-out: anti-proliferative activity
Source text: FIG. 3B is a graph of normalized luminescence versus concentration (log[inhibitor], M) of the indicated compounds (palbociclib, Ia-8, and 17) assessed by CellTiterGlo after treatment of Jurkat cells for 3 d.

[8] = target: T4, Ikaros (Homo sapiens, UniProt Q13422); assay: Immunoblot of Ikaros levels in Jurkat cells; conditions: 1 μM, 4 h
T4 construct: endogenous in cells; host or cells: Jurkat cells
T4 sequence (Q96SW2 whole entry partner): as the sequence (Q96SW2 whole entry) above
T4 sequence (Q16531 whole entry partner): as the sequence (Q16531 whole entry partner) above
T4 sequence (Q13422 whole entry): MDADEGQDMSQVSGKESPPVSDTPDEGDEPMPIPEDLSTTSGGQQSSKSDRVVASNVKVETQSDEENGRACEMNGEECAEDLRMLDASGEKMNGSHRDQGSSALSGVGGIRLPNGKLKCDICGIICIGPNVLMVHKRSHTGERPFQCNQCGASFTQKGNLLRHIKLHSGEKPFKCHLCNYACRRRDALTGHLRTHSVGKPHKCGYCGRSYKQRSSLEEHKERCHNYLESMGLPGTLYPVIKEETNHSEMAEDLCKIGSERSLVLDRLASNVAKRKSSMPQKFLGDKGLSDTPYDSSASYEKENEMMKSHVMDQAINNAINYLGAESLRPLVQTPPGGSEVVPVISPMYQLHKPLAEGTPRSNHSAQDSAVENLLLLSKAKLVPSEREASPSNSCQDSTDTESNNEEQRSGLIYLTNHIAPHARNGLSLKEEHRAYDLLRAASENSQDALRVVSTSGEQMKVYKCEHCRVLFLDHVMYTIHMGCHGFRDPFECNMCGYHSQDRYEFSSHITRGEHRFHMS
Experimental: as §1, §2, §4

degradation of Helios (immunoblot) [1] | protein abundance of Helios (immunoblot) [1] | degradation of CDK4 (immunoblot) [2] | degradation of CDK6 (immunoblot) [3] | IC50 [7] [µM] | degradation of Ikaros (immunoblot) [8] | SMILES | levels of phosphorylated Rb (immunoblot) [4] | induction of G1 arrest [5] | IL-2 secretion [6] | protein abundance of CDK4 (immunoblot) [2] | protein abundance of CDK6 (immunoblot) [3]
only induced degradation of Helios | induced Helios degradation | did not affect CDK4 or CDK6 abundance | did not affect CDK4 or CDK6 abundance | – | – | O=C1CCC(N2Cc3cc(C4CCN(Cc5ccccc5)CC4)ccc3C2=O)C(=O)N1 (centres unmarked) [DKY709, 3-(5-(1-benzylpiperidin-4-yl)-1-oxoisoindolin-2-yl)piperidine-2,6-dione, reference compound] | without affecting the levels of phosphorylated Rb | but not DKY709, induced G1 arrest | elevated IL-2 secretion, although it did not reach statistical significance | – | –
had no degradation activity | had minimal effects | had no degradation activity | had no degradation activity | 0.244 | – | CC(=O)c1c(C)c2cnc(Nc3ccc(N4CCN(CCOc5ccc(CN6CCC(c7ccc8c(c7)CN(C7CCC(=O)N(C)C7=O)C8=O)CC6)cc5)CC4)cn3)nc2n(C2CCCC2)c1=O (centres unmarked) [compound 17, 3-(5-(1-(4-(2-(4-(6-((6-acetyl-8-cyclopentyl-5-methyl-7-oxo-7,8-dihydropyrido[2,3-d]pyrimidin-2-yl)amino)pyridin-3-yl)piperazin-1-yl)ethoxy)benzyl)piperidin-4-yl)-1-oxoisoindolin-2-yl)-1-methylpiperidine-2,6-dione] | had minimal effects | did not | had activity similar to that of palbociclib | had minimal effects | had minimal effects
– | – | – | – | – | – | Nc1cccc2c1CN(C1CCC(=O)NC1=O)C2=O (centres unmarked) [Lenalidomide, reference compound] | – | – | elevated IL-2 secretion, although it did not reach statistical significance | – | –

SMILES | degradation of Helios (immunoblot) [1] | protein abundance of Helios (immunoblot) [1] | degradation of CDK4 (immunoblot) [2] | degradation of CDK6 (immunoblot) [3] | IC50 [7] [µM] | degradation of Ikaros (immunoblot) [8] | levels of phosphorylated Rb (immunoblot) [4] | induction of G1 arrest [5] | IL-2 secretion [6] | protein abundance of CDK4 (immunoblot) [2] | protein abundance of CDK6 (immunoblot) [3]
CC(=O)c1c(C)c2cnc(Nc3ccc(N4CCN(CCOc5ccc(CN6CCC(c7ccc8c(c7)CN(C7CCC(=O)NC7=O)C8=O)CC6)cc5)CC4)cn3)nc2n(C2CCCC2)c1=O (centres unmarked) [Ia-8, 3-(5-(1-(4-(2-(4-(6-((6-acetyl-8-cyclopentyl-5-methyl-7-oxo-7,8-dihydropyrido[2,3-d]pyrimidin-2-yl)amino)pyridin-3-yl)piperazin-1-yl)ethoxy)benzyl)piperidin-4-yl)-1-oxoisoindolin-2-yl)piperidine-2,6-dione] | induced the degradation of CDK4, CDK6, and Helios | induced the triple degradation of Helios, CDK4, and CDK6 | induced the degradation of CDK4, CDK6, and Helios | induced the degradation of CDK4, CDK6, and Helios | 0.166 | but not Ikaros | reduced the levels of phosphorylated Rb | induced G1 arrest | induced elevated levels of IL2 that were comparable to that of 18 | induced the triple degradation of Helios, CDK4, and CDK6 | induced the triple degradation of Helios, CDK4, and CDK6
